We go through twelve molecules from ChEMBL document CHEMBL4673220, “Synthesis of new coumarin tethered isoxazolines as potential anticancer agents” (Bioorg Med Chem Lett, 2018).

Data set [1] is described as follows: Cytotoxicity against human FF2441 cells assessed as reduction in cell viability at 0.2 to 100 uM measured after 72 hrs by MTS assay. To be noted: ff2441, 72 h, dose 0.2-100 µM. The data set is classed as cell-based.
For data set [2], the system named is UACC-903. Briefly: Antiproliferative activity against human UACC-903 cells assessed as reduction in cell viability at 0.5 to 200 uM measured after 72 hrs by MTS assay. Particulars: dose 0.5-200 µM. Format: functional, cell-based. Background: Formazan colour is commonly taken as a measure of viable cells.
Data set [3] concerns UACC-903. The data set is described as follows: Antiproliferative activity against human UACC-903 cells assessed as reduction in cell viability measured after 72 hrs by MTS assay. Format: functional, cell-based. To be noted: for pIC50: UACC-903, 72 h.
The test system of data set [4] is UACC-903. The data set is described as follows: Antiproliferative activity against human UACC-903 cells assessed as reduction in cell viability at 0.5 to 200 uM by MTS assay. Format: functional, cell-based. Particulars: dose 0.5-200 µM, TDE = time-dependent effect.
A short description of data set [5]: Toxicity in Swiss albino mouse implanted with mouse EAT cells assessed as decrease in body weight at 100 mg/kg, ip administered on day 7, 9 and 11 post implantation and measured on day 12. The data set is classed as organism-based. To be noted: in vivo, 72 h, time 3 day.
Data set [6] concerns Chorioallantoic membrane. Briefly: Antiangiogenic activity in chicken fertilized egg chorioallantoic membrane assessed as inhibition of secretion of VEGF-like factors. The data set is classed as functional. To be noted: Gallus gallus, Embryo.
Data set [7] relates to Ehrlich. Briefly: Antitumor activity against mouse EAT cells implanted in ip dosed Swiss albino mouse assessed as tumor regression administered on day 7, 9 and 11 post implantation and measured on day 12. The data set is classed as functional, organism-based. Particulars: time 3.0 day.
Data set [8] concerns Ehrlich. The data set is described as follows: Antitumor activity against mouse EAT cells implanted in ip dosed Swiss albino mouse assessed as induction of apoptosis causing apoptotic body formation administered on day 7, 9 and 11 post implantation and measured on day 12 by Giemsa staining based light microscopy. Format: functional, organism-based. Particulars: dose 100.0 mg/kg, time 3.0 day.

Data set [9] relates to Ehrlich. The data set is described as follows: Antitumor activity against mouse EAT cells implanted in ip dosed Swiss albino mouse assessed as decrease in ascitic fluid administered on day 7, 9 and 11 post implantation and measured on day 12. To be noted: dose 100.0 mg/kg, time 3.0 day. Format: functional, organism-based.
Data set [10] has as its system Ehrlich. Briefly: Antitumor activity against mouse EAT cells implanted in ip dosed Swiss albino mouse assessed as induction of apoptosis causing membrane blebbing administered on day 7, 9 and 11 post implantation and measured on day 12 by Giemsa staining based light microscopy. Format: functional, organism-based. Particulars: dose 100.0 mg/kg, time 3.0 day.
Data set [11] concerns Ehrlich. The data set is described as follows: Antitumor activity against mouse EAT cells implanted in ip dosed Swiss albino mouse assessed as induction of apoptosis causing plasma membrane degradation administered on day 7, 9 and 11 post implantation and measured on day 12 by Giemsa staining based light microscopy. The data set is classed as functional, organism-based. To be noted: dose 100.0 mg/kg, time 3.0 day.

Data set [12] deals with Ehrlich. Briefly: Antitumor activity against mouse EAT cells implanted in ip dosed Swiss albino mouse assessed as decrease in ascitic cell viability administered on day 7, 9 and 11 post implantation and measured on day 12 by tryphan blue assay. Format: functional, organism-based. Particulars: dose 100.0 mg/kg, time 3.0 day.
Data set [13] deals with Chorioallantoic membrane. Briefly: Antiangiogenic activity in chicken fertilized egg chorioallantoic membrane assessed as inhibition of expression of VEGF-like factors. Format: functional. Particulars: Gallus gallus, Embryo.
The subject of data set [14] is Ehrlich. Briefly: Antitumor activity against mouse EAT cells implanted in ip dosed Swiss albino mouse assessed as suppression of peritoneal angiogenesis at […] administered on day 7, 9 and 11 post implantation and measured on day 12 by Hematoxylin and eosin staining based assay. The data set is classed as functional, organism-based. To be noted: time 3.0 day.
Data set [15] relates to Ehrlich. Briefly: Antitumor activity against mouse EAT cells implanted in ip dosed Swiss albino mouse assessed as increase in mouse survival at 100 mg/kg, ip administered on day 7, 9 and 11 post implantation and measured after 35 days relative to control. Format: functional. To be noted: time 35 day.
The test system of data set [16] is Ehrlich. The data set is described as follows: Antitumor activity against mouse EAT cells implanted in Swiss albino mouse assessed as tumor suppression at 100 mg/kg, ip administered on day 7, 9 and 11 post implantation and measured on day 12 relative to control. Format: functional. Particulars: 72 h, time 3 day.
The subject of data set [17] is Chorioallantoic membrane. The data set is described as follows: Antiangiogenic activity in chicken fertilized egg chorioallantoic membrane assessed as inhibition of VEGF165-induced vascularization incubated for 2 days by digital camera photography analysis. The data set is classed as functional. Particulars: Gallus gallus, Embryo, time 2.0 day.
The test system of data set [18] is Ehrlich. The data set is described as follows: Antitumor activity against mouse EAT cells implanted in ip dosed Swiss albino mouse assessed as induction of apoptosis causing shrinkage of cells administered on day 7, 9 and 11 post implantation and measured on day 12 by Giemsa staining based light microscopy. Particulars: dose 100.0 mg/kg, time 3.0 day. The data set is classed as functional, organism-based.

pIC50: −log10 of the molar value. Active and inactive are the calls of the source. The rule behind the calls is not given here.

For the molecule `COc1cc(C2=NOC(COc3ccc4c(C)cc(=O)oc4c3)C2)cc(OC)c1OC` (configuration not stated), the Activity entry in data set [1] is given as “Non-Toxic”. In data set [2], the outcome was inactive.
Taken in the same sequence, the figures for `Cc1cc(=O)oc2cc(OCC3CC(c4ccc(F)cc4)=NO3)ccc12` (configuration not stated) were “Non-Toxic” and “inactive”.
`Cc1cc(=O)oc2cc(OCC3CC(c4ccc(C(F)(F)F)cc4)=NO3)ccc12` (configuration not stated): the Activity result in [1] is reported as “Non-Toxic”. In data set [2], the outcome was inactive.
Consider `Cc1cc(=O)oc2cc(OCC3CC(c4ccc(Cl)cc4)=NO3)ccc12` (configuration not stated), for which, in data set [1], the Activity entry is reported as “Non-Toxic”. For the same molecule, the result in [2] was inactive.
As for `Cc1cc(=O)oc2cc(OCC3CC(c4ccccc4Cl)=NO3)ccc12` (configuration not stated), in data set [3], the Activity result was “Dose-dependent effect” and the negative logarithm of the IC50 (pIC50) (commonly the negative decadic logarithm of the IC50, by convention in mol/L) was 5.04. Moreover, in data set [4], the Activity entry was “Tde”.
Take `Cc1cc(=O)oc2cc(OCC3CC(c4ccc5ccccc5c4)=NO3)ccc12` (configuration not stated): in [1], the Activity result is “Non-Toxic”. For the same molecule, in data set [2], the result was inactive.
`COc1ccc(C2=NOC(COc3ccc4c(C)cc(=O)oc4c3)C2)cc1OC` (configuration not stated): the Activity result in data set [3] is “Dose-dependent effect”; in data set [5], “Toxic”; in [7] it was “Dose-dependent effect”; in [4], “Tde”. In addition, the negative-log IC50 (pIC50) in [3] is 4.98. In addition, the result in [6], in data set [8], in data set [9], in data set [10], in data set [11] and in data set [12] was Active. The outcome in data set [13], in data set [14], in data set [17] and in [18] was Active. For the same molecule, the “fold change (FC)” value in data set [15] was determined as 2. In addition, in data set [16], the inhibition in vivo (commonly the percentage by which the read-out fell short of the control) at 100 mg/kg was determined as 85%.
For `COc1cccc(C2=NOC(COc3ccc4c(C)cc(=O)oc4c3)C2)c1` (configuration not stated), in data set [1], the Activity entry is given as “Non-Toxic”. The outcome in data set [2] was inactive.
Take `Cc1cc(=O)oc2cc(OCC3CC(c4ccc(Br)cc4)=NO3)ccc12` (configuration not stated): in [1], the Activity entry is reported as “Non-Toxic”. Also, the result in data set [2] was inactive.
As to `COc1ccc(C2=NOC(COc3ccc4c(C)cc(=O)oc4c3)C2)cc1` (configuration not stated), in data set [3], the Activity result is “Dose-dependent effect” and the pIC50 was 5.06. In addition, in [4], the Activity entry was “Tde”.
The corresponding values for `Cc1cc(=O)oc2cc(OCC3CC(c4c(F)cccc4Cl)=NO3)ccc12` (configuration not stated) are “Dose-dependent effect”, 5.35 and “Tde”.
For `Cc1cc(=O)oc2cc(OCC3CC(c4cccc(F)c4)=NO3)ccc12` (configuration not stated), the Activity result in data set [1] is reported as “Non-Toxic”. The outcome in [2] was inactive.
